From ChEMBL document CHEMBL2407045, “Discovery and gram-scale synthesis of BMS-593214, a potent, selective FVIIa inhibitor” (Bioorg Med Chem Lett, 2013)

How the values were obtained:
Oryctolagus cuniculus [1] = organism: Oryctolagus cuniculus; assay: Toxicity in rabbit assessed as prolongation of cuticle bleeding time; format: organism-based; details: in vivo
Oryctolagus cuniculus [2] = organism: Oryctolagus cuniculus; assay: Antithrombotic activity in rabbit electric current arterial thrombosis model; format: functional, organism-based
Coagulation factor VII = target: T1, Coagulation factor VII (Homo sapiens, UniProt P08709); assay: Inhibition of recombinant human coagulation factor 7A
T1 sequence (P08709 whole entry): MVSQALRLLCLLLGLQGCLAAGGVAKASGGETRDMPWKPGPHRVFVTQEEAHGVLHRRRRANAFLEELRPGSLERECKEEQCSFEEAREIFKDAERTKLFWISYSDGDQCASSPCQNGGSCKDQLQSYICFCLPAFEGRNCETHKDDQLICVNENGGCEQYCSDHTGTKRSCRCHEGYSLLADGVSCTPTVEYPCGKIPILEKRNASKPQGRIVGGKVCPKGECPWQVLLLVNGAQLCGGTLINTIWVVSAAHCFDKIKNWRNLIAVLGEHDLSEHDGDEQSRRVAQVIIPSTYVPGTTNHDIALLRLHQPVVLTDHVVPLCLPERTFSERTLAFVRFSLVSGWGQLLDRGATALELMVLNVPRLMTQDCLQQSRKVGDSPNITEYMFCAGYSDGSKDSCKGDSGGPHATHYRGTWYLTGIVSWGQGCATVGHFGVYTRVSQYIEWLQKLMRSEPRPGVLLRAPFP

Trypsin = Trypsin (Homo sapiens, UniProt P07477+P07478+P35030); assay: Inhibition of purified human trypsin; format: protein assay
Prothrombin = Prothrombin (Homo sapiens, UniProt P00734); assay: Inhibition of purified human thrombin
Coagulation factor X = Coagulation factor X (Homo sapiens, UniProt P00742); assay: Inhibition of purified human coagulation factor 10a
[3] = Anticoagulant activity in plasma (unknown origin) assessed as concentration required to double prothrombin time; format: functional

Sequence of Coagulation factor X (P00742 41-179 limits assumed): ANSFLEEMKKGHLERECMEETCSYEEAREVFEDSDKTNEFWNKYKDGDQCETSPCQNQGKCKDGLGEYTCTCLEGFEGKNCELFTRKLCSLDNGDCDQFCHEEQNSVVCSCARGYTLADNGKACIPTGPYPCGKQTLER
Sequence of Coagulation factor X (P00742 235-488 limits assumed): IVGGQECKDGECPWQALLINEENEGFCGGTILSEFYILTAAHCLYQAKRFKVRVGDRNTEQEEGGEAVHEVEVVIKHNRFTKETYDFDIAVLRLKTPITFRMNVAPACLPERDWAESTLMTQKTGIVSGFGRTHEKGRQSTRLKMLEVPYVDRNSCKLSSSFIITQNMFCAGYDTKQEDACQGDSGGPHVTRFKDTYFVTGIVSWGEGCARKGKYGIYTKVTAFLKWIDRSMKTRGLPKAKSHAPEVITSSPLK

| SMILES | Activity (Oryctolagus cuniculus [1]) | EC50 (Oryctolagus cuniculus [2]) | Ki (Coagulation factor VII) | Ki (Trypsin) | Ki (Prothrombin) | Ki (Coagulation factor X) | 2PT [3] |
| --- | --- | --- | --- | --- | --- | --- | --- |
| COc1cc([C@@H]2Nc3ccc(C(=N)N)cc3[C@H]3c4ccccc4C[C@H]32)c(-c2ccc(C(=O)O)cc2)cc1O | Non-toxic | 570 nM | – | – | – | – | – |
| C[C@]1(c2ccccc2)C[C@H](c2ccc(O)cc2)Nc2ccc(C(=N)N)cc21 | – | – | 8800 nM | – | – | – | – |
| COc1cc([C@H]2C[C@H](c3ccccc3)c3cc(C(=N)N)ccc3N2)ccc1O | – | – | 1800 nM | – | – | – | – |
| COc1cc([C@@H]2Nc3ccc(C(=N)N)cc3[C@H]3c4ccccc4C[C@H]32)ccc1O (racemic) | – | – | 160 nM | 300 nM | 300 nM | > 500 nM | – |
| COc1cc([C@@H]2Nc3ccc(C(=N)N)cc3[C@H]3c4ccccc4C[C@H]32)c(-c2ccccc2C(=O)O)cc1O (racemic) | – | – | 0.62 nM | 7.5 nM | 35 nM | 16 nM | – |
| COc1cc([C@@H]2Nc3ccc(C(=N)N)cc3[C@H]3c4ccccc4C[C@H]32)c(-c2cccc(C(=O)O)c2)cc1O (racemic) | – | – | 8.1 nM | 6900 nM | 330 nM | 1500 nM | – |
| COc1cc([C@@H]2Nc3ccc(C(=N)N)cc3[C@H]3c4ccccc4C[C@H]32)c(-c2ccc(C(=O)O)cc2)cc1O (racemic) | – | – | 1.9 nM | > 8000 nM | 1800 nM | 1300 nM | 16 µM |
